Experiment: Relative thermodynamic stability of the two anhydrous crystalline forms (enantiotropic pair)
Type: physicochemical
Conditions: freebase of compound of structural formula A; Form I and Form II are enantiotropic

temperatures at which the form is thermodynamically more stable | Compound
above 72 °C | C[C@@H](O[C@H]1CC[C@@H]2CN(C3=CC(=O)CC3)C[C@H]2[C@@H]1c1ccc(F)cc1)c1cc(C(F)(F)F)cc(C(F)(F)F)c1 [Form II]
below 72 °C | C[C@@H](O[C@H]1CC[C@@H]2CN(C3=CC(=O)CC3)C[C@H]2[C@@H]1c1ccc(F)cc1)c1cc(C(F)(F)F)cc(C(F)(F)F)c1 [Form I]

Source: patent publication US20090270477A1, “POLYMORPHS OF A HYDROISOINDOLINE TACHYKININ RECEPTOR ANTAGONIST” (priority 2006, published 2009)
